What all share (assay): […]bicarbonate incorporation into malonyl-CoA
Holding throughout (format): biochemical

Assay [1] addresses T1, ACCase (Phalaris paradoxa).
T1 construct: cytosolic form not separated
The following applies: 1.5 mM ATP, 5 mM acetyl-CoA, 5 mM MgCl2, 15 mM NaH14CO3, pH 8.3, 34 °C, S biotype, read-out: I50.

A further assay concerns the target T2, ACCase (Phalaris minor).
T2 construct: cytosolic form not separated
The following applies: 1.5 mM ATP, 5 mM acetyl-CoA, 5 mM MgCl2, 15 mM NaH14CO3, pH 8.3, 34 °C, S biotype, read-out: I50.

The target in assay [2] is T3, ACCase (Phalaris brachystachys).
T3 construct: cytosolic form not separated
The following applies: 1.5 mM ATP, 5 mM acetyl-CoA, 5 mM MgCl2, 15 mM NaH14CO3, pH 8.3, 34 °C, R biotype (zygosity not given), stated gain, read-out: I50.

The target is the same in assay [3]. The following applies: 1.5 mM ATP, 5 mM acetyl-CoA, 5 mM MgCl2, 15 mM NaH14CO3, pH 8.3, 34 °C, S biotype, read-out: I50.
Where [4] appears, read: table labels herbicide diclofop-methyl, methods say DM acid.

Molecules are shown by their SMILES. Read-outs that look alike come from different tables or passages of the source.

For `CC(Oc1ccc(Oc2ccc(Cl)cc2Cl)cc1)C(=O)O` (stereo not drawn) [DM acid], the IC50 in assay [1] (setting [4]) came to 590 ± 230 nM; at ACCase (Phalaris minor) (setting [4]), 850 ± 30 nM; in assay [2] (setting [4]), 6650 ± 780 nM; in assay [3] (setting [4]), 320 ± 50 nM.
As for `CCCC(=NOCC)C1=C(O)CC(C2CCCSC2)CC1=O` (stereo not drawn) [cycloxydim], the IC50 is 460 ± 60 nM in assay [1], 670 ± 910 nM on ACCase (Phalaris minor), 2400 ± 340 nM in assay [2] and 220 ± 20 nM in assay [3].
For `CCc1cc(C)cc(CC)c1-c1c(OC(=O)C(C)(C)C)n2n(c1=O)CCOCC2` [pinoxaden] the same measures were 660 ± 90 nM, 590 ± 70 nM, 14400 ± 1900 nM and 780 ± 10 nM.
